Tested on: T1, CmLOX18
T1 construct: ORF in pYES2.1 TOPO-TA, His-tagged (anti-His), expressed in Saccharomyces cerevisiae INVSc1, purified
Test: increase in A234, Michaelis-Menten plot
Type: biochemical, Cucumis melo
Conditions: substrate 15-350 μM, pH and temperature of the kinetic runs not stated (optimum pH 4.5, 30 °C)

| Structure (SMILES) | Km | Km (linolenic acid isomer not given, alpha assumed) |
| --- | --- | --- |
| CCCCC/C=C\C/C=C\CCCCCCCC(=O)O [Linoleic acid] | 127 ± 18.6 µM | – |
| CC/C=C\C/C=C\C/C=C\CCCCCCCC(=O)O [Linolenic acid] | – | 40.7 ± 2.65 µM |

Reference: paper PMC5460189, “Melon13-lipoxygenase CmLOX18 may be involved in C6 volatiles biosynthesis in fruit” (Scientific Reports, 2017)
